# Test results reported in patent publication US7687546B2, “Quaternary ammonium compound, process for producing the same, therapeutic agent for cerebrovascular disorder, and therapeutic agent for heart disease” (Activus Pharma Co., Ltd., priority 2004, dated 2010).
# Assays:
# [1] = test system: middle cerebral artery occlusion and reperfusion model; test: Cerebral infarction model: middle cerebral artery occlusion and reperfusion (infarct area, neurological symptoms, motor function); format: in vivo, rats (Crj: Wistar strain); set-up: Improvement of neurological symptoms* (total score): scale not given here; conditions: rats, average of 10 animals
# Procedure: In this example, a cerebral infarction model was prepared using rats in which reperfusion injury was induced by ischemia and then reperfusion of the middle cerebral artery using the obturator method. The efficacy of compounds of the present invention following single-dose intravenous administration at dose of 3 mg/kg was evaluated in terms of infarct area, neurological symptoms and motor function.
# In addition, Edaravone (trade name, Mitsubishi Pharma Corporation) was used as a reference compound. The compounds of the present invention were stored in a refrigerator under protection from light, while Edaravone (trade name) was stored at room temperature under protection from light.
# Compounds of present invention: 2 mL of physiological saline was added directly to tube containing 3 mg aliquots of a compound of the present invention to dissolve and prepare solutions having a concentration of 3 mg/2 mL. These samples were prepared at the time of use.
# Edaravone: Since Edaravone is an injectable solution having a concentration of 30 mg/20 mL, the required amounts were divided up and used.
# Rats: Crj: Wistar strain, males, age 7 weeks (Charles River Laboratories Japan, Inc.)
# The test compounds were administered in a single dose into the tail vein using a 1 mL syringe and 27 G injection needle immediately before the reperfusion.
# The rats were anesthetized by intraperitoneal administration of sodium pentobarbital at dose of 40 mg/kg (Nembutal (trade name), Dainippon Pharmaceutical Co., Ltd.), and a middle cerebral artery occlusion and reperfusion model was prepared in accordance with the method of Koizumi et al. (Non-Patent Document 2). Namely, the animals were warmed to 37° C. and held in the dorsal position while breathing spontaneously. A midline cervical incision was made, and then the right external carotid artery and right internal carotid artery were separated without damaging the vagus nerve. The right common carotid artery and right external carotid artery were ligated, and a suture was attached to the origin of the internal carotid artery in preparation for ligation and maintenance of occlusion following insertion of an obturator into the internal carotid artery. Moreover, a small incision was made in the right common carotid artery, an obturator provided with an approximately 17 mm silicon-coated suture was inserted into the internal carotid artery, and the internal carotid artery was ligated. Two hours after ligation, the obturator was removed under unanesthesia to reperfuse. Furthermore, flexion of the contralateral forelimb was confirmed 30 minutes after occlusion of the middle cerebral artery.
# The following neurological symptoms were evaluated 24 hours after occlusion of the middle cerebral artery according to the evaluation method of Petullo et al. (Non-Patent Document 3). Neurological symptoms consisted of flexion of the forelimbs, torso twisting, resistance when pushing on the back of the right or left shoulder (Lateral push), circling, return of the hindlimb to the floor when lifted from the floor (Hindlimb placement), behavior when the head is faced downward on an angle (Inverted angle board) and a locomotor activity test.
# Flexion of the forelimbs: flexion of the forelimbs was observed when the animals were lifted up by the tail.
# Torso twisting: Torso twisting was observed when the animals were lifted up by the tail.
# Lateral push: Resistance was observed when pushing on the back of the right or left shoulder.
# Hindlimb placement: The animals were observed as to whether or not the hindlimb immediately returns to the floor after being lifted from the floor when placed on a horizontal floor.
# locomotor activity: locomotor activity was observed when the animals were placed in a polycarbonate cage.
# The aforementioned tests were scored based on the criteria described in the following documents, followed by calculation of total scores (see Table 4 “Neurological Symptom Evaluation Criteria and Scores”). […]
# [2] = test system: ouabain-induced arrhythmia model; test: Ouabain-induced arrhythmia model in guinea pigs; format: in vivo, guinea pigs (Hartley strain); conditions: dose 3 mg/kg i.v. immediately before ouabain infusion 3 μg/0.1 ml/min
# From the text: After guinea pigs (Hartley strain, age 6 weeks) were anesthetized with urethane, induction electrodes were attached to the hind limbs and fore limbs, and standard 2-lead electrocardiograms were monitored with an animal electrocardiogram analysis system (ECG-01, Japan Energy). After confirming that the waveforms of the electrocardiogram and heart rate were within the normal range, an incision was made in the epidermis of the neck followed by inserting a breathing tube into the trachea and cannulating a polyethylene tube into the left external jugular vein and left common carotid artery.
# Immediately after administering a compound of the present invention dissolved in a physiological saline solution into the right external jugular vein, ouabain was continuously infused at 3 μg/0.1 ml/min through the cannulated polyethylene tube into the left external jugular vein using a syringe pump (Atom Syringe Pump 1235 (trade name), Atom Medical Corporation).
# In addition, the polyethylene tube cannulated in the left common carotid artery was connected to a pressure transducer (P23XL, Gould Electronics), and fed to a pressure processor signal conditioner (TA-11, Gould Electronics) to record blood pressure and heart rate on a thermal plate recorder.
# The results were assessed by comparing the dose (μg/kg) of ouabain administered until the appearance of arrhythmia and occurrence of cardiac arrest (arrhythmia is not induced even if a large dose of ouabain is administered if antiarrhythmic effects are high). Furthermore, a solvent dose group (administered only physiological saline in an amount equal to that of the test drug groups), and a positive control group administered a typical antiarrhythmic disopyramide phosphate (physiological saline solution), were also provided.
# [3] = test system: model of myocardial ischemia reperfusion injury; test: Model of myocardial ischemia-reperfusion injury in dogs; format: in vivo; conditions: 3 mg/kg into the femoral vein 10 minutes before 20 minutes coronary occlusion, then reperfusion
# Procedure: In order to confirm the efficacy of compounds of the present invention on myocardial infarction and arrhythmia caused by myocardial infarction, a pharmacological study was conducted using a model of myocardial ischemia reperfusion injury in dogs for the compounds used in Example 1.
# Dogs having body weights of approximately 10 kg were anesthetized with pentobarbital (trade name) (30 mg/ml/kg) followed by shaving the surgical site after starting artificial respiration. The femoral vein and femoral artery were separated followed by cannulation. The femoral vein was used as the administration route for the test substances, while the femoral artery was used to measure blood pressure.
# Next, after opening the left chest, making an incision in the pericardium and exposing the left ventricle, the left coronary artery was separated. A silk suture was passed through the coronary artery to occlude, followed by the attachment of an electromagnetic flow meter probe for measuring blood flow.
# In addition, a pair of ultrasound crystal probes was fixed in position to measure changes in ventricular wall length as a indicator of myocardial contractile force, and indwelling needle was installed for measuring left intraventricular pressure. Compounds of the present invention were administered into the femoral vein at 3 mg/kg (15% physiological saline solution) followed 10 minutes later by occluding the coronary artery for 20 minutes, and subsequently reperfusing the coronary artery. Myocardial contraction following ischemia-reperfusion was compared for each group based on a value of 100 for myocardial contraction prior to ischemic reperfusion. In addition, comparisons were also made with a solvent control group administered only physiological saline.
# [4] = test system: model of myocardial ischemia-reperfusion injury; test: Model of myocardial ischemia-reperfusion injury in rats; format: in vivo; conditions: 3 mg/kg i.v. 5 minutes before 5 minutes coronary ligation, 8 rats per group
# [5] = test system: guinea pigs; test: Study of arrhythmia-inducing action in guinea pigs (without ouabain); conditions: up to 1 hour after administration, no ouabain
# [6] = monitored 5 minutes after reperfusion
structure (smiles),measurement,setting,value
"C[N+](C)(C)CCOc1cc(C(=O)O)ccc1O.[Cl-] [Compound 27, [2-(5-carboxy-2-hydroxy-phenoxy)-ethyl]-trimethylammonium Chloride]",Improvement of neurological symptoms* (total score),"[1]; single i.v. dose 3 mg/kg, 24 hours after occlusion, total score per Table 4, smaller = greater effect",6.75
same,Improvement of motor function (time stayed on rotor rod: seconds),"[1]; single i.v. dose 3 mg/kg, rotor rod 14 rotations per minute, maximum 1 minute",47.5 s
same,Cerebral infarction reduction rate (%),"[1]; single intravenous dose 3 mg/kg immediately before reperfusion, vs physiological saline group, bigger = greater effect",53.7%
same,Ouabain (μg/kg) administered until Cardiac arrest,[2],258 µg/kg
same,Ouabain (μg/kg) administered until appearance of Arrhythmia,[2],180 µg/kg
same,Myocardial Contraction (%) (Based on a value of 100% for prior to ischemia-reperfusion),[3],85%
same,Incidence of Ventricular Fibrillation (%),[4]; [6],0%
same,Incidence of Ventricular Tachycardia (%),[4]; [6],50.0%
same,Mortality Rate (%),[4]; then reperfusion,0%
same,Occurrence of Arrhythmia,[5]; dose 3 mg/kg,No
same,Occurrence of cardiac arrest,[5]; dose 3 mg/kg,No
same,Occurrence of Arrhythmia,[5]; dose 10 mg/kg,No
same,Occurrence of cardiac arrest,[5]; dose 10 mg/kg,No
